Results: patent US12428415B2, “Matriptase 2 inhibitors and uses thereof” (Disc Medicine, Inc., priority 2018, dated 2025)

Molecular target: T1, Human Recombinant Matriptase 2 (Homo sapiens, UniProt Q8IU80)
T1 construct: purchased Enzo Life Sciences (an in-house preparation was also used) ALX-201-752-1
T1 sequence (Q8IU80 1-811): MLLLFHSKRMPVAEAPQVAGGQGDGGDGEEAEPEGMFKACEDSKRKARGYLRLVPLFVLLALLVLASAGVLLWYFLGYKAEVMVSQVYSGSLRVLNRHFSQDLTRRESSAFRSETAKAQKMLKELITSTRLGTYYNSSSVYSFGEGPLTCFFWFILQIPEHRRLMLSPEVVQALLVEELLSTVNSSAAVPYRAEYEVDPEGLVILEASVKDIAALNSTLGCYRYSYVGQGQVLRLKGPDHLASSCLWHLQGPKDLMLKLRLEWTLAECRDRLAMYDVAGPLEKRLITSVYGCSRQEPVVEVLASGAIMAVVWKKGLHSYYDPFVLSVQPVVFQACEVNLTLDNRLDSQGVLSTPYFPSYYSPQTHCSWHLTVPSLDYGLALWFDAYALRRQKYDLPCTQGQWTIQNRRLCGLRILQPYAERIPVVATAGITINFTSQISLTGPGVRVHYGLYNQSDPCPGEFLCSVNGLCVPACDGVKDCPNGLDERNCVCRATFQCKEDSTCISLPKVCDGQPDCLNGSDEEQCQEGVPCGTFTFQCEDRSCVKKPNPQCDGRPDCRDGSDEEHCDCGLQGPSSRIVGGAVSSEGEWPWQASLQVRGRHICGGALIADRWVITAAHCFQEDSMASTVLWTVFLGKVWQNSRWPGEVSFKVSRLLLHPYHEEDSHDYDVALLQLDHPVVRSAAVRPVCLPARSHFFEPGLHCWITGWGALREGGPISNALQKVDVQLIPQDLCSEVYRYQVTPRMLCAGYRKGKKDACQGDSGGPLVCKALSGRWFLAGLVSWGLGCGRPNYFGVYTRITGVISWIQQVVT
Test: Matriptase 2 fluorescence based inhibition assay, Method B (50 mM TRIS pH 7.5, 150 mM NaCl, 0.01% gelatin)
Type: biochemical
Conditions: 1 uM compound; Assay Used = B (Method B); read-out: Mar-2 % inhibition at 1 uM
Procedure, shortened: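 Commercial (7 nM) or in-house (15 nM) enzyme preincubated 30 min with compound at 25° C, then 100 μM Boc-Gln-Ala-Arg-AMC added; fluorescence (Ex 360/Em 480 nm) read at 60 min. 1% DMSO final. IC50 from variable-slope sigmoidal fit of % inhibition.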

Row | inhibition at 1 µM [%] | SMILES
1 | 75 to 100 | COc1ccc(Cn2c(C(=O)N[C@H]3CC[C@H](N)CC3)cc3ccc(C(=N)N)cc32)c2ccccc12 [Compound I-668]
2 | 50 to 75 | N=C(N)c1ccc2cc(C(=O)O)n(Cc3cc(Oc4ccncc4)cc4ccccc34)c2c1 [Compound I-632]
3 | 0 to 25 | N=C(N)c1ccc2cc(C(=O)N[C@H]3CCCc4ccccc43)n(Cc3cccc4ccccc34)c2c1 [Compound I-764]
4 | 50 to 75 | N=C(N)c1ccc2cc(C(=O)O)n(Cc3ccc(Oc4ccccc4)c4ccccc34)c2c1 [Compound I-705]
5 | 50 to 75 | N=C(N)c1ccc2cc(C(=O)NC3CCC(N)CC3)n(Cc3ccc(CN)c4ccccc34)c2c1 (stereo not shown) [Compound I-666]
6 | 50 to 75 | COc1ccc(Oc2cc(Cn3c(C(=O)O)cc4ccc(C(=N)N)cc43)c3ccccc3c2)cc1 [Compound I-688]
7 | 50 to 75 | CS(=O)(=O)N[C@H]1CC[C@H](NC(=O)c2cc3ccc(C(=N)N)cc3n2Cc2cccc3ccccc23)CC1 [Compound I-753]
8 | 0 to 25 | CC(C)(C)OC(=O)N[C@H]1CC[C@H](NC(=O)c2cc3ccc(C(=N)N)cc3n2Cc2cccc3ccccc23)CC1 [Compound I-787]
9 | 0 to 25 | CNC(=N)c1ccc2[nH]c(C(=O)N[C@H]3CC[C@H](N)CC3)c(Cc3cccc4ccccc34)c2c1 [Compound I-747]
10 | 25 to 50 | CCOC(=O)c1cc2ccc(C(=N)N)cc2n1Cc1cc(S(=O)(=O)c2ccccc2)cc2ccccc12 [Compound I-669]
11 | 75 to 100 | N=C(N)c1ccc2cc(C(=O)N[C@H]3CC[C@H](N)CC3)n(Cc3cc(OS(=O)(=O)c4ccccc4)cc4ccccc34)c2c1 [Compound I-608]
12 | 75 to 100 | N=C(N)c1ccc2cc(C(=O)NCCN)n(Cc3cc(Oc4ccccc4)cc4ccccc34)c2c1 [Compound I-634]
13 | 75 to 100 | N=C(N)c1cc2c(cn1)cc(C(=O)NC1CCC(N)CC1)n2Cc1cccc2ccccc12 (stereo not shown) [Compound I-690]
14 | 0 to 25 | NC(=NO)c1ccc2cc(C(=O)O)n(Cc3cc(Oc4ccccc4)cc4ccccc34)c2c1 [Compound I-665]
15 | 75 to 100 | N=C(N)c1ccc2cc(C(=O)N[C@H]3CC[C@H](N)CC3)n(Cc3cc(OCc4ccccc4)cc4ccccc34)c2c1 [Compound I-733]
16 | 50 to 75 | N=C(N)c1ccc2cc(C(=O)N[C@H]3CC[C@H](N)CC3)n(Cc3cc(-c4ccc(Cl)s4)on3)c2c1 [Compound I-773]
17 | 75 to 100 | N=C(N)c1ccc2cc(C(=O)O)n(Cc3cccc4c(COCc5ccccc5)cccc34)c2c1 [Compound I-672]
18 | 0 to 25 | CCCCCCOC(=O)NC(=N)c1ccc2cc(C(=O)NC3CCN(C)CC3)n(Cc3cccc4ccccc34)c2c1 [Compound I-765]
19 | 50 to 75 | N=C(N)c1ccc2cc(C(=O)O)n(Cc3cc(S(=O)(=O)c4ccccc4)cc4ccccc34)c2c1 [Compound I-678]

Same assay, conditions: 1 uM compound; Assay Used = B; read-out: Mar-2 % inhibition at 1 uM

Row | inhibition at 1 µM [%] | SMILES
20 | 0 to 25 | CNC(=N)c1ccc2cc(C(=O)N[C@H]3CC[C@H](N)CC3)n(Cc3ccc4ccccc4c3)c2c1 [Compound I-414]
21 | 75 to 100 | COC(=O)NCCNC(=O)c1cc2ccc(C(=N)N)cc2n1Cc1cc(Oc2ncccn2)cc2ccccc12 [Compound I-564]
22 | 25 to 50 | COC(=O)NCCOC(=O)c1cc2ccc(C(=N)N)cc2n1Cc1cc(Oc2ccccc2)cc2ccccc12 [Compound I-555]
23 | 25 to 50 | N=C(N)c1ccc2cc(C(=O)Nc3ccc(N4CCC(F)C4)cc3)n(Cc3cccc4ccccc34)c2c1 (stereo not shown) [Compound I-447]
24 | 0 to 25 | N#Cc1c(C(=O)N[C@H]2CC[C@H](N)CC2)n(Cc2cccc3ccccc23)c2cc(C(=N)N)ccc12 [Compound I-514, N-((1r,4r)-4-aminocyclohexyl)-6-carbamimidoyl-3-cyano-1-(naphthalen-1-ylmethyl)-1H-indole-2-carboxamide]
25 | 25 to 50 | N=C(N)c1ccc2cc(C(=O)Nc3cccc(N4CCCC4)n3)n(Cc3cccc4ccccc34)c2c1 [Compound I-461]
26 | 25 to 50 | COc1ccnc(Oc2cc(Cn3c(C(=O)O)cc4ccc(C(=N)N)cc43)c3ccccc3c2)n1 [Compound I-574]
27 | 50 to 75 | CN(C(=O)c1cc2ccc(C(=N)N)cc2n1Cc1cccc2ccccc12)[C@H]1CC[C@H](N)CC1 [Compound I-451]
28 | 25 to 50 | N=C(N)c1ccc2cc(C(=O)N3CC[C@@H](O)C3)n(Cc3cccc4ccccc34)c2c1 [Compound I-441]
29 | 0 to 25 | CC(C)(C)OC(=O)NC(=N)c1ccc2cc(C(=O)NC3CCCN(C(=O)OC(C)(C)C)C3)n(Cc3cccc4ccccc34)c2c1 (stereo not shown) [Compound I-427]
30 | 0 to 25 | NC(=O)c1ccc2cc(-c3nnc([C@H]4CC[C@H](N)CC4)s3)n(Cc3cccc4ccccc34)c2c1 [Compound I-527, 2-(5-((1r,4r)-4-aminocyclohexyl)-1,3,4-thiadiazol-2-yl)-1-(naphthalen-1-ylmethyl)-1H-indole-6-carboxamide]
31 | 25 to 50 | N=C(N)c1ccc2cc(C(=O)N3CCOCC3)n(Cc3cccc4ccccc34)c2c1 [Compound I-468]
32 | 25 to 50 | NCc1ccc2cc(C(=O)O)n(Cc3cccc4ccccc34)c2c1 [Compound I-538, 6-(aminomethyl)-1-(naphthalen-1-ylmethyl)-1H-indole-2-carboxylic Acid]
33 | 25 to 50 | N=C(N)c1ccc2cc(C(=O)N[C@H]3CC[C@H](N)CC3)n(Cc3cccc(Cl)c3Cl)c2c1 [Compound I-498]
34 | 25 to 50 | N=C(N)c1ccc2cc(C(=O)NS(=O)(=O)C3CC3)n(Cc3cccc4ccccc34)c2c1 [Compound I-484]
35 | 75 to 100 | N=C(N)c1ccc2cc(-c3nnc([C@H]4CC[C@H](N)CC4)s3)n(Cc3cccc4ccccc34)c2c1 [Compound I-526, 2-(5-((1r,4r)-4-aminocyclohexyl)-1,3,4-thiadiazol-2-yl)-1-(naphthalen-1-ylmethyl)-1H-indole-6-carboximidamide]
36 | 25 to 50 | COC(=O)[C@H]1CC[C@H](NC(=O)c2cc3ccc(C(=N)N)cc3n2Cc2cccc3ccccc23)CC1 [Compound I-471]
37 | 75 to 100 | N=C(N)c1ccc2cc(C(=O)NC3CCNCC3F)n(Cc3cccc4ccccc34)c2c1 (stereo not shown) [Compound I-593]
38 | 50 to 75 | CC1(O)CCC(NC(=O)c2cc3ccc(C(=N)N)cc3n2Cc2cccc3ccccc23)CC1 (stereo not shown) [Compound I-436]
39 | 50 to 75 | N=C(N)c1ccc2cc(C(=O)N[C@H]3CC[C@@H](N)CC3)n(-c3ccc4ccccc4c3)c2c1 [Compound I-491]
40 | 75 to 100 | N=C(N)c1ccc2cc(C(=O)NCCN3CCCCC3)n(Cc3cccc4ccccc34)c2c1 [Compound I-481]

Row | SMILES | inhibition at 1 µM [%]
41 | N=C(N)c1ccc2c(C(N)=O)c(C(=O)N[C@H]3CC[C@H](N)CC3)n(Cc3cccc4ccccc34)c2c1 [Compound I-513, N2-((1r,4r)-4-aminocyclohexyl)-6-carbamimidoyl-1-(naphthalen-1-ylmethyl)-1H-indole-2,3-dicarboxamide] | 25 to 50

Same assay, conditions: compound at 1 uM; Assay Used: B; read-out: Mar-2 % inhibition at 1 uM

Row | inhibition at 1 µM [%] | SMILES
42 | 75 to 100 | COc1cccc2c(Cn3c(C(=O)N[C@H]4CC[C@H](N)CC4)cc4ccc(C(=N)N)cc43)cccc12 [Compound I-797]
43 | 25 to 50 | N=C(N)c1ccc2cc(C(=O)N[C@H]3CC[C@H](N)CC3)n(Cc3cccc4c3CCCC4)c2c1 [Compound I-814]
44 | 50 to 75 | N=C(N)c1ccc2cc(C(=O)N[C@H]3CC[C@H](N)CC3)n(Cc3cccc4ccsc34)c2c1 [Compound I-818]
45 | 75 to 100 | N=C(N)c1ccc2cc(C(=O)N[C@H]3CC[C@H](N)CC3)n(Cc3ccc(CO)c4ccccc34)c2c1 [Compound I-824]
46 | 50 to 75 | N=C(N)c1ccc2cc(C(=O)N[C@H]3CC[C@H](N)CC3)n(Cc3cccc4sc(CO)cc34)c2c1 [Compound I-813, N-((1r,4r)-4-aminocyclohexyl)-6-carbamimidoyl-1-((2-(hydroxymethyl)benzo[b]thiophen-4-yl)methyl)-1H-indole-2-carboxamide]
47 | 0 to 25 | C[C@@H](c1cccc2ccccc12)n1c(C(=O)N[C@H]2CC[C@H](N)CC2)cc2ccc(C(=N)N)cc21 [Compound I-805]
48 | 75 to 100 | CN(C)CCCOc1ccc2c(Cn3c(C(=O)N[C@H]4CC[C@H](N)CC4)cc4ccc(C(=N)N)cc43)cccc2c1 [Compound I-804, N-((1r,4r)-4-aminocyclohexyl)-6-carbamimidoyl-1-((6-(3-(dimethylamino)propoxy)naphthalen-1-yl)methyl)-1H-indole-2-carboxamide]

Same assay, conditions: read-out: Mar-2 % inhibition at 1 uM

Row | SMILES | inhibition at 1 µM [%]
49 | COC(=O)c1cc2ccc(C(=N)NC(=O)Oc3ccccc3)cc2n1Cc1cccc2ccccc12 [Compound I-738] | 0 to 25
